A word on the residual activity: it is what remains of the control signal, in per cent. A high value points to much activity left. For orientation: inhibition means the relative decrease from the control value, in per cent. Broadly, the IC50 is the midpoint of a concentration-inhibition curve. Read a low IC50 as inhibition by little substance.

The target of experiment [1] is Casein kinase II subunit alpha (Homo sapiens) (UniProt P68400). Briefly: Inhibition of CSNK2A1 (unknown origin) at 1 uM by Ambit Kinomescan binding assay relative to control; values are per cent of control.
In experiment [2] the target is Phosphatidylinositol 4,5-bisphosphate 3-kinase catalytic subunit alpha isoform (Homo sapiens) (UniProt P42336). The experiment in a line: Inhibition of PIK3CA ATP labeling site in human A-375 cells at 5 uM by KiNativ Profiling analysis relative to control. The class given is cell-based.
Experiment [3] deals with T1, Interleukin-1 receptor-associated kinase 4 (Homo sapiens) (UniProt Q9NWZ3).
T1 sequence (whole entry): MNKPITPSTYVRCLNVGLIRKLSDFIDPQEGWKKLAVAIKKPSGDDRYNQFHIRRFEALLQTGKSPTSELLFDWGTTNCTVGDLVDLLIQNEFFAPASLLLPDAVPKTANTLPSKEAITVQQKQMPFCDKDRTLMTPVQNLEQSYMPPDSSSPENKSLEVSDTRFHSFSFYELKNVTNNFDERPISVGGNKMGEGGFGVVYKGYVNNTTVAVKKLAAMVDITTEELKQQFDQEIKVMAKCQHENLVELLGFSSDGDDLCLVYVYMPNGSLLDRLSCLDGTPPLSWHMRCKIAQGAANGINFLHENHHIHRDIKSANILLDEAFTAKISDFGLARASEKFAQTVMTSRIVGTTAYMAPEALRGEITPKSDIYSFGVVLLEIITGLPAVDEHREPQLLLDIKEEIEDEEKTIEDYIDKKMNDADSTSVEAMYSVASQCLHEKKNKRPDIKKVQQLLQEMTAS
Briefly: Inhibition of IRAK4 Lys2 labeling site in human A-375 cells at 0.5 uM by KiNativ Profiling analysis relative to control. The class given is cell-based.

The target of experiment [4] is eIF-2-alpha kinase GCN2 (Homo sapiens) (UniProt Q9P2K8). Briefly: Inhibition of GCN2 domain2 Lys2 labeling site in human A-375 cells at 0.5 uM by KiNativ Profiling analysis relative to control. The class given is cell-based.
Experiment [5] deals with Cyclin-dependent kinase 7 (Homo sapiens) (UniProt P50613). The experiment in a line: Inhibition of CDK7 Lys2 labeling site in human A-375 cells at 0.05 uM by KiNativ Profiling analysis relative to control. The class given is cell-based.
In experiment [6] the test system is Epidermal growth factor receptor (Homo sapiens), P00533 [L861Q]. Briefly: Inhibition of EGFR L861Q mutant (unknown origin) at 1 uM by Ambit Kinomescan binding assay relative to control.
The target of experiment [7] is Eukaryotic translation initiation factor 2-alpha kinase 1 (Homo sapiens) (UniProt Q9BQI3). The experiment in a line: Inhibition of EIF2AK1 (unknown origin) at 1 uM by Ambit Kinomescan binding assay relative to control; values are per cent of control.
Experiment [8] concerns the target T2, Serine/threonine-protein kinase Sgk3 (Homo sapiens) (UniProt Q96BR1).
T2 sequence (whole entry): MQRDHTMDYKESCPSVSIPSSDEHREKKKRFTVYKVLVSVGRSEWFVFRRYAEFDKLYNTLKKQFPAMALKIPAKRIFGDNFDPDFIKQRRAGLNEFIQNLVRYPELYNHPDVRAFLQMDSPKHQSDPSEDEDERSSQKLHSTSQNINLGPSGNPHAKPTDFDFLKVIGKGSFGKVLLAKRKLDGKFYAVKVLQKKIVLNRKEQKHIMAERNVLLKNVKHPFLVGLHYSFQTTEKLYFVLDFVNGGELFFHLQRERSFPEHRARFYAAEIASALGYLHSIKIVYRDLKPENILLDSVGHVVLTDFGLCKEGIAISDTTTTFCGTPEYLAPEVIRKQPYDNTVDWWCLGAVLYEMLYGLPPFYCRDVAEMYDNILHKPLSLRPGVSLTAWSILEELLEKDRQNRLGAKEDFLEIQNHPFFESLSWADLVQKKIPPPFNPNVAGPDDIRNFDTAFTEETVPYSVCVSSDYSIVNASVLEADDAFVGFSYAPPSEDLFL
The experiment in a line: Inhibition of SGK3 K1 labeling site in human Huh-7 cells at 1 uM by KiNativ Profiling analysis relative to control. The class given is cell-based.

Experiment [9] deals with Myosin light chain kinase 2, skeletal/cardiac muscle (Homo sapiens) (UniProt Q9H1R3). The experiment in a line: Inhibition of MYLK2 (unknown origin) at 10 uM by Ambit Kinomescan binding assay relative to control.
In experiment [10] the target is Cyclin-dependent kinase 14 (Homo sapiens) (UniProt O94921). Briefly: Inhibition of PFTAIRE1 Lys2 labeling site in human A-375 cells at 5 uM by KiNativ Profiling analysis relative to control.
The target of experiment [11] is Serine/threonine-protein kinase SMG1 (Homo sapiens) (UniProt Q96Q15). The experiment in a line: Inhibition of SMG1 ATP labeling site in human Huh-7 cells at 1 uM by KiNativ Profiling analysis relative to control. The class given is cell-based.
Experiment [12] has as its target Serine/threonine-protein kinase 10 (Homo sapiens) (UniProt O94804). The experiment in a line: Inhibition of LOK Lys1 labeling site in human A-375 cells at 5 uM by KiNativ Profiling analysis relative to control. The class given is cell-based.
Experiment [13] has as its target Vascular endothelial growth factor receptor 1 (Homo sapiens) (UniProt P17948). The experiment in a line: Inhibition of FLT1 (unknown origin) at 10 uM by Ambit Kinomescan binding assay relative to control; values are per cent of control.
For experiment [14], the target named is Tyrosine-protein kinase Fer (Homo sapiens, UniProt P16591). Briefly: Inhibition of FER (unknown origin) ACT labeling site by KiNativ Profiling analysis.
Experiment [15] deals with Serine/threonine-protein kinase 38-like (Homo sapiens) (UniProt Q9Y2H1). The experiment in a line: Inhibition of NDR2 (unknown origin) at 10 uM by Ambit Kinomescan binding assay relative to control.
In experiment [16] the target is Phosphatidylinositol 3-kinase catalytic subunit type 3 (Homo sapiens) (UniProt Q8NEB9). The experiment in a line: Inhibition of PIK3C3 ATP labeling site in human Huh-7 cell lysate at 1 uM by KiNativ Profiling analysis relative to control. The class given is subcellular.
For experiment [17], the target named is Serine/threonine-protein kinase MARK2 (Homo sapiens) (UniProt Q7KZI7). The experiment in a line: Inhibition of MARK2 Lys2 labeling site harbouring DLKAENLLLDADMNIK in human Huh-7 cell lysate at 1 uM by KiNativ Profiling analysis relative to control. Type of experiment: subcellular.
The target in experiment [18] is Cyclin-dependent kinase 10 (Homo sapiens) (UniProt Q15131). The experiment in a line: Inhibition of CDK10 Lys2 labeling site in human Huh-7 cells at 1 uM by KiNativ Profiling analysis relative to control. The class given is cell-based.
Experiment [19] addresses 5'-AMP-activated protein kinase catalytic subunit alpha-1 (Homo sapiens) (UniProt Q13131). The experiment in a line: Inhibition of AMPKa1 ATP Loop labeling site in human Huh-7 cells at 1 uM by KiNativ Profiling analysis relative to control. Type of experiment: cell-based.
The target in experiment [20] is Cyclin-dependent kinase 2 (Homo sapiens) (UniProt P24941). Briefly: Inhibition of CDK2 Lys2 labeling site harbouring VLHRDLKPQNLLINTEGAIK in human Huh-7 cells at 1 uM by KiNativ Profiling analysis relative to control. Type of experiment: cell-based.
For experiment [21], the target named is Serine/threonine-protein kinase PLK1 (Homo sapiens) (UniProt P53350). The experiment in a line: Inhibition of PLK1 Lys1 labeling site harbouring CFEISDADTKEVFAGKIVPK in human Huh-7 cell lysate at 1 uM by KiNativ Profiling analysis relative to control. Type of experiment: subcellular.
Chain of Serine/threonine-protein kinase PLK1 (Homo sapiens) (P53350 whole entry): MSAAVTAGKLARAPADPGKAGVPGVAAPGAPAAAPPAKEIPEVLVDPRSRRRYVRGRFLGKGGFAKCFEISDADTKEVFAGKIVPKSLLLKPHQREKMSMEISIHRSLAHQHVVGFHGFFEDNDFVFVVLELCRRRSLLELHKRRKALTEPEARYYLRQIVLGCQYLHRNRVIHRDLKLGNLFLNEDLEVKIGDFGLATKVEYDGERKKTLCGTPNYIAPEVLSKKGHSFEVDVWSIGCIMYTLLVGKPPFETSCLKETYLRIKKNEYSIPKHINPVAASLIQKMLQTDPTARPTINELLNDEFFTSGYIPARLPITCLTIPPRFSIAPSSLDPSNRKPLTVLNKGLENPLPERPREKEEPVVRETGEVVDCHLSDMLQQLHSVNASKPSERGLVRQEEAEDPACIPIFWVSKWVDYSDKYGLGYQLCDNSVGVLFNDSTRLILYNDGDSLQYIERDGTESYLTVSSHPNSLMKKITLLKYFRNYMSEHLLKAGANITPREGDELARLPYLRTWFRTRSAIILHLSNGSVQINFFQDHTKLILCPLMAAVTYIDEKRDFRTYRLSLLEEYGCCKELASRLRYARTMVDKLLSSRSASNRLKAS

Chain of Serine/threonine-protein kinase 10 (Homo sapiens) (O94804 whole entry, looked up): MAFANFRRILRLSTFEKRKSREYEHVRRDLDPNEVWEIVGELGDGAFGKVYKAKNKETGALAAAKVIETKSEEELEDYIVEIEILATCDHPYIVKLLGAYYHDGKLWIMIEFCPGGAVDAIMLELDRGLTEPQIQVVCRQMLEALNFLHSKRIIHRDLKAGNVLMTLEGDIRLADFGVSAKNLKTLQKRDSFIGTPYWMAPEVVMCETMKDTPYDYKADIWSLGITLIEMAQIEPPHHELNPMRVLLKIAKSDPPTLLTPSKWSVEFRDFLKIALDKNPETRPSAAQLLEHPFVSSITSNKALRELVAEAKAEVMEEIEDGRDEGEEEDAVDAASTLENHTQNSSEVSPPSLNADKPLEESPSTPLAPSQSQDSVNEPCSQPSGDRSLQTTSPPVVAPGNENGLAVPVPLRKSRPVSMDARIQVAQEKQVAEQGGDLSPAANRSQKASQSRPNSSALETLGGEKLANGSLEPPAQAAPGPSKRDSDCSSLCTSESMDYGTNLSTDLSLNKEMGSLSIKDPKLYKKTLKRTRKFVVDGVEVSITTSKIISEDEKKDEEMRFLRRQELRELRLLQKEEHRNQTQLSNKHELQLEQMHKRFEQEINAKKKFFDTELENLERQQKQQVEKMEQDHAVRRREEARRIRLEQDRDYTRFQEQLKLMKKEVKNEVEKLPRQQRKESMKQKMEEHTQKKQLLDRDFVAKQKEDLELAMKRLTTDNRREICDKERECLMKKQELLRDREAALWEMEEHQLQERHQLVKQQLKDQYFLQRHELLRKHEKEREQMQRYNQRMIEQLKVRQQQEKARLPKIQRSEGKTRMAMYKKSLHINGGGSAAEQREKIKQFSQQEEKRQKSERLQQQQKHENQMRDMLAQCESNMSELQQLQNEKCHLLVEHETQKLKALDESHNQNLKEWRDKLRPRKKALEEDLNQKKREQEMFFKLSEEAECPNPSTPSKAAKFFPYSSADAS
Chain of Serine/threonine-protein kinase MARK2 (Homo sapiens) (Q7KZI7 whole entry): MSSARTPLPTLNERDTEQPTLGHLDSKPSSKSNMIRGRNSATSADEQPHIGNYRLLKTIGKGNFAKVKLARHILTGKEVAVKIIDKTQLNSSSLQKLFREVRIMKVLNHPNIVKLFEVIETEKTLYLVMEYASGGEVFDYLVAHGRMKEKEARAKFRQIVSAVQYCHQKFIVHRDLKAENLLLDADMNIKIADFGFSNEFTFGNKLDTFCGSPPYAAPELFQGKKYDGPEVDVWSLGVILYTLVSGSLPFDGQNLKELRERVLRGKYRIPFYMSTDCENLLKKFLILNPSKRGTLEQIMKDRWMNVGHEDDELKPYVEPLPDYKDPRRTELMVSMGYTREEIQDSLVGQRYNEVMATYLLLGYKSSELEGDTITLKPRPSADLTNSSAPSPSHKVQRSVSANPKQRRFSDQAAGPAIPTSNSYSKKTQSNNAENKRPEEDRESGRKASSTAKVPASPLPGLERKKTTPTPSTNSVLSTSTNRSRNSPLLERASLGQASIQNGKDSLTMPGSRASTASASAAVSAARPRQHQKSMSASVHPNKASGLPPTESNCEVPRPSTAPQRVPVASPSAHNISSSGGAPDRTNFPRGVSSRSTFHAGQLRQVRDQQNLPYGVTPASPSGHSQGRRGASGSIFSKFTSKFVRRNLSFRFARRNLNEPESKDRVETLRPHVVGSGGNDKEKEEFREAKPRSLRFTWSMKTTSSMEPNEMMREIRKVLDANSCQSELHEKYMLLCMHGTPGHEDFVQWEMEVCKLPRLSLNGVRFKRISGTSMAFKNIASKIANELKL
Chain of 5'-AMP-activated protein kinase catalytic subunit alpha-1 (Homo sapiens) (Q13131 whole entry, looked up): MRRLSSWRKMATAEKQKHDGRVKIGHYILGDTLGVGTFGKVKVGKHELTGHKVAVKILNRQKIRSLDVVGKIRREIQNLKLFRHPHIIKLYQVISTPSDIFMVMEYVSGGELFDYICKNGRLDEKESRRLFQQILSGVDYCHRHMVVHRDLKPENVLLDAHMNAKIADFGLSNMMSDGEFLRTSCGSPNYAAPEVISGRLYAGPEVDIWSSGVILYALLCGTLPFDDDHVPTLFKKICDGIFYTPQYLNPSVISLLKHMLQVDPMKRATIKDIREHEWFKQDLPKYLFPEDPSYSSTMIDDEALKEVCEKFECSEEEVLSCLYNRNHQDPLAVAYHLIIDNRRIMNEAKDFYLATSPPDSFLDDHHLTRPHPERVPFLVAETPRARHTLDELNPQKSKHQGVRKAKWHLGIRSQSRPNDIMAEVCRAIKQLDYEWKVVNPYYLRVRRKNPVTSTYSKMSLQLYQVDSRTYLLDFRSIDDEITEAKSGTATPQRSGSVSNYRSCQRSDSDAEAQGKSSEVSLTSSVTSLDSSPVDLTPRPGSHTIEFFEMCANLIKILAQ
Chain of Myosin light chain kinase 2, skeletal/cardiac muscle (Homo sapiens) (Q9H1R3 whole entry): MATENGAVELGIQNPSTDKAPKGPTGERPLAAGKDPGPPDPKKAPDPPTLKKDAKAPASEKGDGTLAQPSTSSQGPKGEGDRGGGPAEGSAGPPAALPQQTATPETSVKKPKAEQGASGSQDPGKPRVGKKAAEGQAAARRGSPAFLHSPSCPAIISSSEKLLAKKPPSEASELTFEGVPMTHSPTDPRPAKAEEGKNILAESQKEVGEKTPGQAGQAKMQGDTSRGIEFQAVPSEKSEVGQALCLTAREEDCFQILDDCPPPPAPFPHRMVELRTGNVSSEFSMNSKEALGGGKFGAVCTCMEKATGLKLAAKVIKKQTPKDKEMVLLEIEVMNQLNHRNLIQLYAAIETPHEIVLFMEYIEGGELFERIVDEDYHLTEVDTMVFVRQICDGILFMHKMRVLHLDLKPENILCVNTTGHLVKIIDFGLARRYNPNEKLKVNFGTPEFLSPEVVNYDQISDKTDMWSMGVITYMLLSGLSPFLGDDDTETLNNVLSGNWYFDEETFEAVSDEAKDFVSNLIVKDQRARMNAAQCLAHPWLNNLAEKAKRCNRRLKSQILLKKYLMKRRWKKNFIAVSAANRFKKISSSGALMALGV
Chain of Tyrosine-protein kinase Fer (P16591 whole entry): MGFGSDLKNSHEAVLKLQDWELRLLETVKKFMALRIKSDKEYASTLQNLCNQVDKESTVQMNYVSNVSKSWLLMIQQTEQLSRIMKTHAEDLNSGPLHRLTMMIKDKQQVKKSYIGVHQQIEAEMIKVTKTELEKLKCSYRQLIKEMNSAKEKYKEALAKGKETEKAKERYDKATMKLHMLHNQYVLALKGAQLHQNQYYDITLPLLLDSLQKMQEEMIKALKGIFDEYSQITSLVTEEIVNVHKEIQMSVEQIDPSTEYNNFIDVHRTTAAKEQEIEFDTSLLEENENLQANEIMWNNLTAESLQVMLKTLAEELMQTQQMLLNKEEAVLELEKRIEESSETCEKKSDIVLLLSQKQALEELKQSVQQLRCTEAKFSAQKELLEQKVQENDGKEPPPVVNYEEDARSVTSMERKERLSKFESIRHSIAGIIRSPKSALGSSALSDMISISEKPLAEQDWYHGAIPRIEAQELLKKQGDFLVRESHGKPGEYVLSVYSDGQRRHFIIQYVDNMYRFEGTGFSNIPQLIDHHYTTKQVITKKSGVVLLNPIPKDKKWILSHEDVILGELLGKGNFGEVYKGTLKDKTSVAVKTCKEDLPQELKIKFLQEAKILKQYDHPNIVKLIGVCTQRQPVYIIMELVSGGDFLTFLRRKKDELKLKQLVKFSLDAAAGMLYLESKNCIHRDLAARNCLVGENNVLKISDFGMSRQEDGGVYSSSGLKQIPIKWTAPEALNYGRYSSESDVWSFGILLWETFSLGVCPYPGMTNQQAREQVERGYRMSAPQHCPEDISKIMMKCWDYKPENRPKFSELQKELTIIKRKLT
Chain of Cyclin-dependent kinase 10 (Homo sapiens) (Q15131 whole entry): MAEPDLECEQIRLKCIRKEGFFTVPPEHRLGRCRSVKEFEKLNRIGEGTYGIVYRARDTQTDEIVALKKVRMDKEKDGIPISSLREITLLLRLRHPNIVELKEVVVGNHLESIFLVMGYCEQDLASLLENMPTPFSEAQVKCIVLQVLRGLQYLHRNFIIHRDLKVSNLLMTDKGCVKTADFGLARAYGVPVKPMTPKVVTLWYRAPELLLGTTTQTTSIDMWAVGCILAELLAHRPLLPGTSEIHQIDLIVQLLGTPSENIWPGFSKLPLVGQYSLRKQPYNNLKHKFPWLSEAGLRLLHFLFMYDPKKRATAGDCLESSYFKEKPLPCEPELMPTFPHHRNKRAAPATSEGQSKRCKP
Chain of Cyclin-dependent kinase 7 (Homo sapiens) (P50613 whole entry): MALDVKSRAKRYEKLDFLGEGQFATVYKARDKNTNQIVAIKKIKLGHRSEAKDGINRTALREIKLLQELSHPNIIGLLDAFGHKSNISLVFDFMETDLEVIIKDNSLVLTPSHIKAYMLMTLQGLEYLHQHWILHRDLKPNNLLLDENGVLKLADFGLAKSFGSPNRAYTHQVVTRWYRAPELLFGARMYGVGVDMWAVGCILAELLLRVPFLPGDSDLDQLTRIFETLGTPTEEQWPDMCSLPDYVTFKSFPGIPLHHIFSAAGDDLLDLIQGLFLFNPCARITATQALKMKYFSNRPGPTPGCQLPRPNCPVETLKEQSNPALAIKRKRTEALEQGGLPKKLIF

With `CCN1CCN(Cc2ccc(NC(=O)c3ccc(C)c(/C=C/c4cnc5[nH]ccc5c4OC)c3)cc2C(F)(F)F)CC1`, the residual activity in experiment [1] and in experiment [7] was 100% each time. For the same compound, the inhibition in [2] came to 56.9%; in experiment [3], 10.3%; in experiment [4], 44.6%; in [5], 32.7%; in [6], 0.25%.
With `CCN1CCN(Cc2ccc(NC(=O)c3ccc(C)c(Oc4ccnc5[nH]ccc45)c3)cc2C(F)(F)F)CC1`, the inhibition is 8.8% in experiment [8]; 8.4% in experiment [9]; 77.8% in experiment [10]; 13% in [11]; 82.3% in [12]; 6.8% in [15]. In addition, in [13], the percent of control was found to be 1.6%. For the same compound, half-maximal inhibition in experiment [14] (IC50) was put at 82.3 nM.
As for `CNc1cc(Oc2cc(C(=O)Nc3cc(N4CCN(C)CC4)cc(C(F)(F)F)c3)ccc2C)ncn1`, the inhibition in [16] was -4.2%; in experiment [17], -4.1%; in [18], 59.3%; in [19], -3.8%; in [20], 29.3%; in experiment [21], 1%.

The record behind these values is ChEMBL document CHEMBL5696442, “Discovery of type II inhibitors of TGFβ-activated kinase 1 (TAK1) and mitogen-activated protein kinase kinase kinase kinase 2 (MAP4K2)” (J Med Chem, 2015).
